Patent publication US4633014A, “Substituted 3-hydrazinopropionates” (priority 1983, dated 1986)

Columns and labels:
[1] = tested on: arrhythmia induced by an intravenous administration of calcium chloride; test: Antiarrhythmic activity on a model of arrhythmia induced by intravenous calcium chloride (antagonism to calcium) in mice; type: in vivo; conditions: white mice, 20-40 minutes before
Method: The specific (antiarrhythmic) effect and acute toxicity were studied.
The antiarrhythmic activity of the compounds according to the present invention was studied on a model of arrhythmia induced by an intravenous administration of calcium chloride. In experiments on white mice of both sexes with a mass of 18-25 g narcotized by urethane (1,200 mg/kg intraperitoneally) ECG in the second standard lead was recorded. A 2% solution of calcium chloride was introduced into the tail vein at a constant rate (0.01 ml for 2 sec). The dose of calcium chloride causing arrhythmia and the dose causing the heart arrest were determined. In the test groups the test compounds were administered intraperitoneally 20-40 minutes before the beginning of the experiment.

in vivo = conditions: mouse, in vivo, ip
Method: (§1) The study of the effect provided by the compounds according to the present invention on the cardio-vascular system was carried out in experiments on white mice. The specific (antiarrhythmic) effect and acute toxicity were studied.
(§2) The acute toxicity of the compounds according to the present invention was determined in experiments on white mice with a mass of 20-25 g. The test compounds were administered intraperitoneally in the form of aqueous solutions or suspensions in Twin-80. Observation over the test animals was effected for 10 days.

white mice = test: in vivo
Method: as §1, §2

Row | Structure (SMILES) | Dose of calcium chloride causing arrythmia in animals under experiment ([1]; intraperitoneal dose 5 mg/kg) | Dose of calcium chloride causing death in animals under experiment ([1]; intraperitoneal dose 5 mg/kg) | Dose of calcium chloride causing arrythmia in animals under experiment ([1]; intraperitoneal dose 15 mg/kg) | Dose of calcium chloride causing death in animals under experiment ([1]; intraperitoneal dose 15 mg/kg) | LD50 at 240 h (in vivo) [mg/kg] | Relative toxisity to quinidine (white mice; white mice, intraperitoneal, relative to quinidine) | Relative toxisity to quinidine (white mice; mouse, in vivo, ip, 14400 min) | Dose of calcium chloride causing arrythmia in animals under experiment ([1]; intraperitoneal dose 25 mg/kg) | Dose of calcium chloride causing death in animals under experiment ([1]; intraperitoneal dose 25 mg/kg)
1 | CCCCCC(=O)N(CCC(=O)OC)N(C)C [I-26, 3-(2,2-dimethyl-1-hexanoylhydrazino)methylpropionate] | 111,3 mg/kg | 138,0 mg/kg | 107,6 mg/kg | 140,0 mg/kg | 630 | 4,0 | – | – | –
2 | CCCCCCCCCCCCCCCC(=O)N(CCC(=O)OC)N(C)C [I-27, 3-(2,2-dimethyl-1-hexadecanoylhydrazino)methylpropionate] | 92,7 mg/kg | 118,0 mg/kg | 109,0 mg/kg | 120,6 mg/kg | 2380 | – | 15,2 | – | –
3 | CCCCCCCCCCCCCCCCCC(=O)N(CCC(=O)OC)N(C)C [I-28, 3-(2,2-dimethyl-1-octadecanoylhydrazino)methylpropionate] | 90,1 mg/kg | 108 mg/kg | – | – | 6150 | – | 39,4 | 133,8 mg/kg | 143 mg/kg
4 | COC(=O)CCN(C(=O)c1ccccc1)N(C)C [I-29, 3-(2,2-dimethyl-1-benzoylhydrazino)methylpropionate] | 97,6 mg/kg | 109,5 mg/kg | – | – | 3500 | – | 22,4 | 140,2 mg/kg | 142,0 mg/kg
5 | COC(=O)CCN(C(=O)Cc1ccccc1)N(C)C [I-30, 3-(2,2-dimethyl-1-benzylcarbonylhydrazino)methylpropionate] | 94,0 mg/kg | 120,5 mg/kg | 102,0 mg/kg | 125,0 mg/kg | 1200 | – | 7,6 | – | –
6 | COC(=O)CCN(C(=O)c1ccccc1F)N(C)C [I-31, 3-(2,2-dimethyl-I-(2'-fluorophenylcarbonyl)hydrazino)methylpropionate] | 88,5 mg/kg | 109,0 mg/kg | 100,5 mg/kg | 112,5 mg/kg | 1600 | – | 10,2 | – | –
7 | COC(=O)CCN(C(=O)c1ccc(Br)cc1)N(C)C [I-32, 3-(2,2-dimethyl-1-(4'-bromophenylcarbonyl)hydrazino)methylpropionate] | 90,3 mg/kg | 105,5 mg/kg | 100,0 mg/kg | 110,0 mg/kg | 1680 | – | 10,7 | – | –
8 | COC(=O)CCN(C(=O)c1ccccc1COC(=O)c1ccccc1)N(C)C [I-33] | 87,5 mg/kg | 108,6 mg/kg | 111,0 mg/kg | 132,5 mg/kg | 2850 | – | 18,2 | – | –
9 | C=CC(=O)N(CCC(=O)OC)N(C)C [I-34, 3-(2,2-dimethyl-1-acroylhydrazino)-methylpropionate] | 108,4 mg/kg | 130,0 mg/kg | 110,5 mg/kg | 136,0 mg/kg | 980 | – | 6,2 | – | –
